Reference: the COVID Moonshot data (paper PMC7615835)
Where “and” joins values, the source holds several entries; their conditions need not be identical. Identical values can stand only once.

biological target: SARS-CoV-2 Main Protease (SARS-CoV-2) (UniProt P0DTD1)

Row | SMILES | IC50
1 | O=C1CC(N2CC(C(=O)Nc3cncc4ccccc34)c3cc(Cl)ccc3C2=O)CN1 (stereo not given) | 0.681 µM
2 | O=C(NCCc1cccc(F)c1)C(c1cccnc1)N(C(=O)c1ccco1)c1cccc(CSC2CCOCC2)c1 (stereo not given) | > 99.5 µM
3 | O=C1CCCN(S(=O)(=O)c2cccc(F)c2)CC1 | > 99.5 µM
4 | NCc1cn(CC(=O)N(CC(=O)N2CCNCC2)c2ccc(-c3ccccc3)cc2)nn1 | > 99.5 µM
5 | N#CC1CN(S(=O)(=O)NCc2ccc(Cl)cc2CC(=O)Nc2cncc3ccccc23)C1 | 0.231 µM
6 | O=C(Cn1nnc2ccccc21)N(CC1CCOC1)c1ccc(C2CCNCC2)cc1 (stereo not given) | > 99.5 µM
7 | O=c1[nH]c(Cc2cccc(C(F)(F)F)c2)nc2cnccc12 | > 99.5 µM
8 | O=C(Cc1cc(Cl)cc(Nc2cnc(Br)c(Cl)n2)c1)Nc1cncc2ccccc12 | 1.94 µM
9 | O=C(Cc1ccncc1Cl)Nc1cncc2ccccc12 | 52.6 µM
10 | COc1ccccc1OCCNC(=O)c1cc(=O)ccn1C | > 99.5 µM
11 | Cc1nc2ccc(N(C(=O)c3cnc[nH]3)C(C(=O)NCCc3cccc(F)c3)c3cccnc3)cc2o1 (stereo not given) | > 99 µM
12 | COCCn1nc(C(=O)N(c2ccc(C(C)(C)C)cc2)C(C(=O)NCCc2cccc(F)c2)c2cccnc2)ccc1=O (stereo not given) | > 99.5 µM
13 | Nc1cncc2c1CCCN2C(=O)Cc1cccc(Cl)c1 | 25.5 µM and 41.4 µM
14 | CN(C)C(=O)CN1CCC(C(=O)Nc2cncc3ccccc23)c2cc(Cl)ccc21 (stereo not given) | 2.54 µM
15 | CN(CCO)S(=O)(=O)N1Cc2ccc(Cl)cc2C2(CCN(c3cncc4ccccc34)C2=O)C1 (stereo not given) | 0.699 µM
16 | O=c1[nH]c(-c2nnc[nH]2)nc2cc(-c3ccccc3Cl)sc12 | > 99.5 µM
17 | Cn1ncc(S(=O)(=O)N2Cc3ccc(Cl)cc3C(C(=O)Nc3cncc4ccccc34)C2)n1 (stereo not given) | 0.268 µM
18 | COC(=O)C1CC1C(=O)N1CCC(c2c[nH]c3ncccc23)CC1 (stereo not given) | > 99.5 µM
19 | Cc1cc(C)n(-c2cc(Cl)cc(CC(=O)Nc3cncc4ccccc34)c2)c(=O)c1CN | 2.41 µM
20 | O=S(=O)(Nc1ccccc1SCc1cccc(Cl)c1F)c1cc(Cl)sc1Cl | 2.23 µM
21 | O=C(Cc1cc(Cl)cc(Nc2ccc(F)cc2Br)c1)Nc1cncc2ccccc12 | 2.04 µM
22 | O=C(Cc1cc(Cl)cc(Nc2ccc([N+](=O)[O-])c3ccccc23)c1)Nc1cncc2ccccc12 | 2.14 µM
23 | O=C(Cc1cc(Cl)ccc1Cl)Nc1cncc2ccccc12 | 1.02 µM
24 | CC(=O)N1CCN(CC(=O)Nc2cncc3ccccc23)CC1 | > 99.5 µM and 51.7 µM
25 | CC(NC(=O)CCl)c1cc(Cl)cc(-c2ccc(S(N)(=O)=O)cc2)c1 (stereo not given) | 0.466 µM

Row | SMILES | IC50
26 | O=C(NCc1ccccc1)[C@H]1CN(C(=O)CCl)CCN1S(=O)(=O)c1ccsc1 (stereo in doubt) | 0.621 µM
27 | Cc1ccncc1N1CCC(c2cccc(Cl)c2)C1=O (stereo not given) | 44.7 µM
28 | CN(Cc1nnc2ccccn12)C(=O)c1ccnc2ccccc12 | > 99.5 µM
29 | CC(C)(C)c1ccc(N(C(=O)c2c[nH]c(=O)[nH]2)C(C(=O)NCCc2cccc(F)c2)c2cccnc2)cc1 (stereo not given) | 15.9 µM
30 | O=C(Cc1cc(Cl)cc(Nc2ccc(O)cc2[N+](=O)[O-])c1)Nc1cncc2ccccc12 | 5.33 µM
31 | CC(NC(=O)Nc1ccn2ccnc2c1)c1ccc2[nH]c(=O)oc2c1 (stereo not given) | > 99.5 µM
32 | O=C(Cc1cc(Cl)cc(Nc2cc(Cl)ccc2Br)c1)Nc1cncc2ccccc12 | 2.1 µM
33 | COC1(CS(=O)(=O)N2Cc3ccc(Cl)cc3C3(CCN(c4cncc5cc(S(C)(=O)=O)ccc45)C3=O)C2)CC1 (stereo not given) | 0.413 µM
34 | O=C(Cc1cc(Cl)cc(N2CCN(Cc3ccc(C(F)(F)F)cc3)CC2)c1)Nc1cncc2ccccc12 | 4.28 µM
35 | CC(C)(C)c1ccc(N(C(=O)c2ccn[nH]2)C(C(=O)NCCc2cccc(F)c2)c2cccnc2)cc1 (stereo not given) | 1.78 µM
36 | OC(Cc1cccc(Cl)c1)Cn1cncn1 (stereo not given) | 65.3 µM
37 | CNC(=O)CN1C[C@@H](C(=O)Nc2cncc3cc(Cl)ccc23)c2cc(Cl)ccc2C1=O (stereo in doubt) | 0.939 µM
38 | O=C(Cn1ccc(=O)[nH]c1=O)N1CCN(c2ccccc2O)CC1 | > 99.5 µM
39 | N#Cc1ccc(N(C(=O)c2cocn2)C(C(=O)NCCc2cccc(F)c2)c2cccnc2)cc1 (stereo not given) | > 99.5 µM
40 | O=C(Cc1cc(Cl)cc(N2CCN(c3nsc4ccccc34)CC2)c1)Nc1cncc2ccccc12 | 3.34 µM
41 | O=C(Cc1cc(Cl)cc(Nc2nnc(Cl)cc2Br)c1)Nc1cncc2ccccc12 | 1.81 µM
42 | Cc1nccn1-c1ccc(Nc2cc(Cl)cc(CC(=O)Nc3cncc4ccccc34)c2)cc1 | 2.48 µM
43 | CNC(=O)C(C)(C)N1CC(C(=O)Nc2cncc3ccccc23)c2cc(Cl)ccc2C1=O (stereo not given) | 1.02 µM
44 | O=C(c1ccc(N2CCCC2)nc1)N1CCCC(c2ccn[nH]2)C1 (stereo not given) | > 99.5 µM
45 | Cc1nc(CN2Cc3ccc(Cl)cc3C(C(=O)Nc3cncc4ccc(F)cc34)C2)cs1 (stereo not given) | 1.12 µM
46 | CCN(C(=O)c1ccco1)C(C(=O)NCCc1cccc(F)c1)c1cccnc1 (stereo not given) | > 99.5 µM
47 | Cc1cn2nnc(C(=O)N(c3ccc(C(C)(C)C)cc3)C(C(=O)NCCc3cccc(F)c3)c3cccnc3)c2c(=O)[nH]1 (stereo not given) | > 99.5 µM
48 | Cc1nc(-c2cccc(NCc3ccccc3C)c2)n[nH]1 | > 99.5 µM
49 | O=C(Cc1cccc(Cl)c1)Nc1cccc2[nH]ncc12 | > 99.5 µM
50 | N#CC1(CS(=O)(=O)N2Cc3ccc(Cl)cc3C3(CCN(c4cncc5ccc(OCCN6CCCC6)cc45)C3=O)C2)CC1 (stereo not given) | 0.225 µM

Row | SMILES | IC50
51 | O=C(Cc1cc(Cl)cc(Nc2ccc(Cl)c(Cl)c2)c1)Nc1cncc2ccccc12 | 2.28 µM
52 | C[C@@H]1NC(=O)c2ccc(Cl)cc2[C@@H]1C(=O)Nc1cncc2ccccc12 (stereo in doubt) | 0.454 µM
53 | CN1CCN(C2CCN(c3cc(Cl)cc(CC(=O)Nc4cncc5ccccc45)c3)CC2)CC1 | 4.56 µM
54 | O=C(Cc1cc(Cl)cc(Nc2cc(Cl)c(F)cc2F)c1)Nc1cncc2ccccc12 | 1.74 µM
55 | Cc1cccc2ncnc(NC(C)c3ccc4[nH]c(=O)[nH]c4c3)c12 (stereo not given) | > 99.5 µM
56 | N#Cc1ncn(CC(=O)Nc2ccc(Br)cc2Cl)n1 | 15.7 µM
57 | CC(C)N(C)S(=O)(=O)N1Cc2ccc(Cl)cc2C(C(=O)Nc2cncc3ccccc23)C1 (stereo not given) | 0.126 µM
58 | O=C(Cc1cccc(Cl)c1)Nc1cncc2c(Cl)cccc12 | > 99.5 µM
59 | NC(=O)CN1CCCN(C(=O)CCSc2ccc(F)cc2)CC1 | > 99.5 µM
60 | O=C(Cc1cc(O)cc(Cl)c1)Nc1cncc2ccccc12 | 9.89 µM
61 | O=C(NNc1cc(O)nc2ncccc12)c1ccc2[nH]ccc2c1 | > 99.5 µM
62 | O=C(Cc1cccc(C(F)(F)F)c1)Nc1cnccc1C(=O)O | > 99.5 µM
63 | O=C(Cc1cccc(Cl)c1)Nc1cncc2cc(C(F)F)ccc12 | 2.25 µM
64 | CN1C(=O)CCc2cc(N(C(=O)c3cocn3)C(C(=O)NCCc3cccc(F)c3)c3cccnc3)ccc21 (stereo not given) | 63.5 µM
65 | Cn1cccc(C(C(=O)NCCc2cccc(F)c2)N(C(=O)c2cocn2)c2ccc(C(C)(C)C)cc2)c1=O (stereo not given) | > 99.5 µM
66 | O=C(Cc1cc(Cl)cc(N2CCN(c3ccccc3O)CC2)c1)Nc1cncc2ccccc12 | 1.85 µM
67 | CCC(C)c1ccc(C(NCC(=O)Nc2ccc3[nH]c(=O)[nH]c3c2)c2cccs2)cc1 (stereo not given) | > 99.5 µM
68 | O=C(Cc1cccc(Cl)c1)Nc1cncc2[nH]ccc12 | 6.19 µM
69 | CC1=C[C@@H](c2c(O)cc(-c3cc4ccc(O)cc4o3)cc2O)[C@@H](C(=O)c2ccc(O)cc2O)[C@H](c2ccc(O)cc2O)C1 (stereo in doubt) | > 99.5 µM
70 | O=C(COc1cccc(Cl)c1)Nc1cncc2ccccc12 | 11.2 µM
71 | O=C(NCCc1cccc(F)c1)C(c1cccnc1)N(C(=O)c1cnc[nH]1)c1ccc(OC(F)F)cc1 (stereo not given) | 22.1 µM
72 | O=C(NC(c1ccccc1)c1ccccc1)[C@H]1CN(C(=O)CCl)CCN1S(=O)(=O)c1ccsc1 (stereo in doubt) | 0.832 µM
73 | CC(C)(C)OC(=O)N(c1cc(Cl)cc(CC(=O)Nc2cncc3ccccc23)c1)C1CNC1 | 2.03 µM
74 | C=CC(=O)N(c1cc(C(C)(C)C)on1)C(C(=O)NCCc1cccc(F)c1)c1cncc(O)c1 (stereo not given) | > 99.5 µM
75 | O=C1CN(C(=O)Cc2cccc(Cl)c2)Cc2ccccc21 | > 99.5 µM

Row | SMILES | IC50
76 | Cc1cc(I)ccc1Nc1cc(Cl)cc(CC(=O)Nc2cncc3ccccc23)c1 | 2.45 µM
77 | CC1(C(=O)Nc2cncc3ccccc23)CN(CC2CC2)S(=O)(=O)c2ccc(Cl)cc21 (stereo not given) | 0.634 µM
78 | O=C(CCl)N1CCC(c2nc(-c3cccnc3)nc3ccccc23)CC1 | 18.2 µM
79 | O=C(c1cc(=O)[nH]c2ccccc12)N1CCN(Cc2cccc(Cl)c2)CC1 | 4.57 µM
80 | CC(C)S(=O)(=O)c1ccc(N(C(=O)c2cnc[nH]2)C(C(=O)NCCc2cccc(F)c2)c2cccnc2)cc1 (stereo not given) | > 99 µM
81 | O=C(Cc1cc(Cl)cc(Nc2cccc(I)c2)c1)Nc1cncc2ccccc12 | 2.22 µM
82 | CS(=O)(=O)c1ccc2c(NC(=O)C3CN(CC(=O)NC4CCC4)C(=O)c4ccc(Cl)cc43)cncc2c1 (stereo not given) | 0.252 µM
83 | COc1ccn2c(NC(=O)Cc3cccc(Cl)c3)cnc2c1 | > 99.5 µM
84 | Cc1ccncc1N(CC#N)C(=O)Cc1cccc(Cl)c1 | > 99.5 µM
85 | O=C(NCCc1cccc(F)c1)C(c1cccnc1)N(C(=O)c1cnc[nH]1)c1cccc(C2COC2)c1 (stereo not given) | > 99 µM
86 | Cc1cccc2nc(NC3CCN(c4ccc5nncn5n4)C3)sc12 (stereo not given) | > 99.5 µM
87 | O=C(Cc1cc(Cl)cc(Nc2ccc(Cl)c(Cl)c2F)c1)Nc1cncc2ccccc12 | 2.26 µM
88 | CNC(=O)CN1C[C@@]2(CC(=O)N(c3cncc4ccccc34)C2=O)c2cc(Cl)ccc2C1=O (stereo in doubt) | 0.123 µM
89 | N#Cc1cccc(NC(=O)Nc2c[nH]c3ncccc23)c1 | 63.6 µM
90 | N#Cc1ccc(Nc2cc(Cl)cc(CC(=O)Nc3cncc4ccccc34)c2)c(I)c1 | 1.62 µM
91 | O=C(/C=C/c1ccccc1)N1CCN(S(=O)(=O)c2cccc(F)c2)CC1 | > 99.5 µM
92 | Cc1cc(N)ncc1NC(=O)Cc1cccc(Cl)c1 | > 99.5 µM
93 | O=C(Cc1cccc(Cl)c1)Nn1cnc2ccccc21 | 8.3 µM
94 | Cc1c(Br)cccc1Nc1cc(Cl)cc(CC(=O)Nc2cncc3ccccc23)c1 | 2.13 µM
95 | O=C(Cc1cc(Cl)cc(Nc2ccncc2Br)c1)Nc1cncc2ccccc12 | 2.18 µM
96 | O=C(Nc1cncc2ccccc12)C1CCOc2c(O)cc(Cl)cc21 (stereo not given) | 0.579 µM
97 | O=C(COCC1(C(=O)Nc2cncc3ccccc23)CCOc2ccc(Cl)cc21)Nc1ncc[nH]1 (stereo not given) | 1.99 µM
98 | Cn1ncc2cc(N(C(=O)c3cnc[nH]3)C(C(=O)NCCc3cccc(F)c3)c3cccnc3)ccc21 (stereo not given) | > 99 µM
99 | COc1ccc([C@H](C)Nc2cc(Cl)cc(CC(=O)Nc3cncc4ccccc34)c2)cc1 (stereo in doubt) | 4.73 µM
100 | O=C(Cc1cccc(Cl)c1)Nc1cncn2cnnc12 | > 99.5 µM
